{"source": "patent US20250144250A1", "about": "“PH-SENSITIVE FLUOROPHORES” (The General Hospital Corporation, priority 2022, published 2025)", "key": {"ID8 cells": {"test_system": "ID8 cells", "test": "Inhibition assay of transporters to determine entry mechanism of PH08", "format": "cell-based, murine", "details": "0.2 μM PH08", "experimental": "FIG. 2 Cellular uptake of pH sensing NIR fluorophores via membrane transporters: In vitro tumor cell uptake of the pH sensing NIR probes under normoxic and hypoxic conditions. Murine cancer cell line ID8 cells were incubated at normoxic or hypoxic conditions (1% O2) for 24 h at 37° C. and then incubated for 30 min in the presence of 0.1 μM NIR probes. (a) Representative fluorescence images of cells are shown. The contrast was normalized across all images. Scale bar=100 μm. (b) Quantitative time-course measurements of the fluorescence intensity in cells. *P<0.05, **P<0.01 by two-way ANOVA followed by Tukey's multiple comparisons test (Normoxia vs. Hypoxia). Error bars show mean #s.d. […] Representative fluorescence images of cells are shown. […] (d) Quantitative measurements of the fluorescence intensity in cells. *P<0.05 by two-way ANOVA followed by Tukey's multiple comparisons test. […]\nThe organic anion transporting polypeptides (OATPs) is known to mediate the transmembrane uptake of small molecule drugs and include structurally related fluorophores such as the clinically approved indocyanine green (ICG) and tumor-targeting IR-780. […] Next, we determined the contribution of organic cation transporters (OCTs) and organic carnitine (zwitterion) transporters (OCTNs) on the uptake of PH08, which may play roles in the transcellular movement of small organic molecules across epithelial barriers. […]"}, "[1]": {"test_system": "peritoneal dissemination of ID8 ovarian cancer", "test": "Preclinical intraoperative fluorescence-guided surgery", "format": "in vivo, mice", "details": "FGS 4 h post-injection, 20 nmol", "experimental": "Preclinical intraoperative fluorescence-guided surgery: We performed preclinical fluorescence-guided surgery (FGS) in mice with peritoneal dissemination of ID8 ovarian cancer using the FLARE imaging system. We injected 20 nmol of PH08 in 100 μL of 5% wt/v BSA/saline into the mouse intraperitoneally 4 h prior to the surgery. The abdominal cavity was opened with a midline incision under isoflurane inhalational anesthesia. The entire abdominal cavity was examined carefully by a surgeon using color and fluorescent imaging on the FLARE imaging system. Peritoneal dissemination was resected under white light assisted with the color and fluorescent images.\nEvaluation of in vivo efficacy of NIR fluorophores for fluorescence-guided surgery (FGS): Having confirmed the pH sensitivity and tumor cell uptake of PH08 in vitro, we next evaluated the in vivo performance of the pH sensing NIR fluorophores in a mouse model of ovarian cancer. […] In this model, approximately 12 week post-peritoneal injection of ID8 cells, numerous nodules were observed on the peritoneum. These small nodules (<1 mm) are extremely difficult to localize and visualize in the surgical field. Thus, this model was suitable to test the performance of this fluorophore. […] The signal of PH08 allowed for clear visualization of the lesions that measured 5 mm or less than 1 mm in diameter. […]"}}}
{"smiles": "CCN1/C(=C/C=C2\\CCCC(/C=C/C3=[N+](CC)c4ccccc4C3(C)C)=C2N2CCNCC2)C(C)(C)c2ccccc21", "note": "[PH08]", "values": [{"measurement": "cellular uptake after treatment with D22, inhibitor of OCTs and OCTNs", "setting": "ID8 cells", "result": "did not induce changes in cellular uptake"}, {"measurement": "cellular uptake after treatment with bromsulphthalein (BSP), OATP inhibitor", "setting": "ID8 cells", "result": "significant reduction in cellular uptake"}, {"measurement": "outcome of FGS", "setting": "[1]", "result": "complete resection of metastatic nodules"}]}
